In ChEMBL document CHEMBL4828744, “Design, synthesis and biological evaluation of pyridinylmethylenepiperidine derivatives as potent 5-HT1F receptor agonists for migraine therapy” (Eur J Med Chem, 2021):

What was measured:
[1] = Cmax in Sprague-Dawley rat at 5 mg/kg, ig measured for 24 hrs by LC-MS/MS analysis; format: ADME, organism-based; design: route intragastric, time 24 hrs, dose 5 mg/kg; details: in vivo, po
[2] = target: 5-hydroxytryptamine receptor 2B (Homo sapiens, UniProt P41595); assay: Binding affinity to human 5HT2B receptor
Chain of 5-hydroxytryptamine receptor 2B (P41595 whole entry): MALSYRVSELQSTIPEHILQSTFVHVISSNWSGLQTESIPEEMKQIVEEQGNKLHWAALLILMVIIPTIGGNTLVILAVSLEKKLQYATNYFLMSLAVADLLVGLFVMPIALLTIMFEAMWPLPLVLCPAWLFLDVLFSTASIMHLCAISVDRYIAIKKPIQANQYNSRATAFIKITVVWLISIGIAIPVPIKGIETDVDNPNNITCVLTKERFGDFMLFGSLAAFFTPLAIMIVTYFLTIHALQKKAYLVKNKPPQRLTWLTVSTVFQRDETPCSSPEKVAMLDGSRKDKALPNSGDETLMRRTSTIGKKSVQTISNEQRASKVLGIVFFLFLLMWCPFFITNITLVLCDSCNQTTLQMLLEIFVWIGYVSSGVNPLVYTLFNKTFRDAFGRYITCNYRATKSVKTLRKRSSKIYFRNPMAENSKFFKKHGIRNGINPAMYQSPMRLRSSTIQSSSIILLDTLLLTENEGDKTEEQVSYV

Homo sapiens [3] = species on record: Homo sapiens; assay: Selectivity ratio of IC50 for human 5HT2A receptor to IC50 for human 5HT1F receptor
[4] = target: T1, 5-hydroxytryptamine receptor 1F (Homo sapiens) (UniProt P30939); assay: Potency index, ratio of lasmiditan EC50 to test compound EC50 for agonist activity at 5HT1F receptor (unknown origin) expressed in HEK293 cells measured after 60 mins by Fluo-4AM dye based FLIPR assay; format: functional, cell-based
T1 sequence (whole entry): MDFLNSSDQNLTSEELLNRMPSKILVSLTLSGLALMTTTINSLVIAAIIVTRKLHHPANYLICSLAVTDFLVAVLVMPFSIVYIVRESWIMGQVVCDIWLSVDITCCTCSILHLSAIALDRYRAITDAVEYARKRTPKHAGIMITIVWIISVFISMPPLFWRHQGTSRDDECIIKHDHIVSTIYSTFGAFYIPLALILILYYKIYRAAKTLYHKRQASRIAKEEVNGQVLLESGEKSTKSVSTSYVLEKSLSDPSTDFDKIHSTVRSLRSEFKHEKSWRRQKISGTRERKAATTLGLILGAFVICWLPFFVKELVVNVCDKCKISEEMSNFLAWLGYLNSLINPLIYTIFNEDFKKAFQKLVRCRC

[5] = Bioavailability in Sprague-Dawley rat at 5 mg/kg, ig measured for 24 hrs by LC-MS/MS analysis; format: ADME, organism-based; details: in vivo, po
[6] = AUC(0 to t) in Sprague-Dawley rat at 5 mg/kg, ig measured for 24 hrs by LC-MS/MS analysis; format: ADME, organism-based; design: time 24 hrs, dose 5 mg/kg; details: in vivo, po
[7] = Toxicity in Sprague-Dawley rat assessed as effect on inflammatory reaction at 150 mg/kg/day, ig administered for 28 days; format: organism-based; details: in vivo, po, 672 h, time 28 day
[8] = AUC (0 to 24hrs) in Sprague-Dawley rat at 150 mg/kg, ig by LC-MS/MS analysis; format: ADME, organism-based; design: time < 24 hr, route intragastric, dose 150 mg/kg; details: in vivo, po
[9] = Toxicity in NewZealand rabbit Saphenous vein rings assessed as induction of vasoconstriction at 0.01 to 100 uM; format: tissue-based, Oryctolagus cuniculus; details: dose 0.01-100 µM
Homo sapiens [10] = species on record: Homo sapiens; assay: Selectivity ratio of IC50 for human 5HT2C receptor to IC50 for human 5HT1F receptor
[11] = Cmax in Sprague-Dawley rat at 50 mg/kg, ig administered for 28 days by LC-MS/MS analysis; format: ADME, organism-based; design: route intragastric, time 28 day, dose 50 mg/kg; details: in vivo, po
[12] = target: T2, 5-hydroxytryptamine receptor 1A (Homo sapiens, UniProt P08908); assay: Binding affinity to human 5HT1A receptor
T2 sequence (P08908 whole entry): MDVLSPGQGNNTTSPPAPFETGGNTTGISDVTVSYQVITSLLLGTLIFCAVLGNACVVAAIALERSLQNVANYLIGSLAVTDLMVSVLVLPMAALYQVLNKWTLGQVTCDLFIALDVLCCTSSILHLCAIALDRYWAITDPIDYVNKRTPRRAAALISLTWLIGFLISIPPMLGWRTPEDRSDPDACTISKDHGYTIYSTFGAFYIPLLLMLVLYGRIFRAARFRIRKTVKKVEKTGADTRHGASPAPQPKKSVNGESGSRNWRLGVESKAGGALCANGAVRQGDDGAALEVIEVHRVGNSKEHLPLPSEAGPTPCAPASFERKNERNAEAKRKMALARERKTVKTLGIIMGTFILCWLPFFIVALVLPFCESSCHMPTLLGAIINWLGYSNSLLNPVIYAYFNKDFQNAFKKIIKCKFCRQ

[13] = target: 5-HT1B/5-HT1F (Homo sapiens) (UniProt P30939+P28222); assay: Selectivity ratio of IC50 for human 5HT1B receptor to IC50 for human 5HT1F receptor; format: protein assay
Chain of 5-HT1B/5-HT1F (Homo sapiens) (P28222 whole entry, looked up, one chain of several): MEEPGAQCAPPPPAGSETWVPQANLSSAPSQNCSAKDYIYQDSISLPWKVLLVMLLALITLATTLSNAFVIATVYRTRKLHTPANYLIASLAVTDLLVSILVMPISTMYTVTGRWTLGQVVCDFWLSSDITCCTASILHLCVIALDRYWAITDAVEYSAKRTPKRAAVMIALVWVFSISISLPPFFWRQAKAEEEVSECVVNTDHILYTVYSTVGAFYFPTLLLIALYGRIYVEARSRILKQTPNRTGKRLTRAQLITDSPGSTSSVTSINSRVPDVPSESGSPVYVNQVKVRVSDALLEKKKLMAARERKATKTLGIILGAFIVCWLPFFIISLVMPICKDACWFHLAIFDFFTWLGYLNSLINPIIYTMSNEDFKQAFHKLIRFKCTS

Homo sapiens [14] = species on record: Homo sapiens; assay: Selectivity ratio of IC50 for human 5HT3 receptor to IC50 for human 5HT1F receptor
[15] = Toxicity in Sprague-Dawley rat assessed as effect on food intake at 150 mg/kg/day, ig administered for 28 days; format: organism-based; details: in vivo, po, 672 h, time 28 day
[16] = Cmax in monkey at 5 mg/kg, ig administered for 28 days by LC-MS/MS analysis; format: ADME, organism-based, Macaca mulatta; design: route intragastric, time 28 day, dose 5 mg/kg; details: rhesus monkey, in vivo, po
[17] = AUC (0 to 24hrs) in Sprague-Dawley rat at 15 mg/kg, ig by LC-MS/MS analysis; format: ADME, organism-based; design: time < 24 hr, route intragastric, dose 15 mg/kg; details: in vivo, po
[18] = Toxicity in ig dosed monkey administered for 28 days; format: organism-based, Macaca mulatta; details: rhesus monkey, in vivo, po; time 28 day

Cmax [1]: 88 ng/mL
IC50 [2]: 8.61 µM
Ratio IC50 (Homo sapiens [3]): > 10000
Ratio EC50 [4]: 4
bioavailability [5]: 64%
AUC(0-t) at 24 h [6]: 404 ng·h/mL
AUC(0-t) at 24 h [8]: 10200 ng·h/mL
Ratio IC50 (Homo sapiens [10]): > 10000
Cmax [11]: 523 ng/mL
IC50 [12]: 0.151 µM
Ratio IC50 [13]: > 10000
Ratio IC50 (Homo sapiens [14]): > 10000
Cmax [16]: 3410 ng/mL
AUC(0-t) at 24 h [17]: 849 ng·h/mL
SMILES: CN1CCC(=C(F)c2cccc(NC(=O)c3c(F)cc(F)cc3F)n2)CC1
Activity [7]: Non-Toxic
Activity [9]: Non-Toxic
Activity [15]: Non-Toxic
NOAEL at 672 h [18]: 5 mg/kg/day
